Measurements reported in patent US5153226A, “Acat inhibitors for treating hypocholesterolemia” (Warner-Lambert Company, priority 1990, dated 1992).

How the values were obtained:
[1] = test system: cholesterol; assay: in vivo screen APCC, cholesterol in rats fed PCC diet with cholic acid; design: species or system male Sprague-Dawley rats; conditions: APCC rats dosed at 4 PM, PCC diet with 1% or 0.5% cholic acid overnight, blood cholesterol at 8 AM; dose not given
From the text: In one in vivo screen, designated APCC, male Sprague-Dawley rats (200 to 225 g) were randomly divided into treatment groups and dosed at 4 PM with either vehicle (CMC/Tween) or suspensions of compounds in vehicle. The normal, chow diet was then replaced with the PCC diet (RR 740-02122) with either 1% or 0.5% cholic acid, as indicated. The rats consumed this diet ad libitum during the night and were sacrificed at 8 AM to obtain blood samples for cholesterol analysis using standard procedures (RR 740-02122). Statistical differences between mean cholesterol values for the same vehicle were determined using analysis of variance followed by Fisher's least significant test.

[2] = target: T1, acyl-CoA:cholesterol acyltransferase (ACAT) (Oryctolagus cuniculus, UniProt G1SFD9); assay: in vitro ACAT inhibition, acylation of cholesterol by oleic acid in tissue preparation containing rabbit intestinal microsomes; assay type: biochemical; conditions: concentration required to inhibit 50% expression of the enzyme
T1 construct: tissue preparation containing rabbit intestinal microsomes; from tissue; host or cells: rabbit intestinal microsomes
T1 sequence (G1SFD9 1-524): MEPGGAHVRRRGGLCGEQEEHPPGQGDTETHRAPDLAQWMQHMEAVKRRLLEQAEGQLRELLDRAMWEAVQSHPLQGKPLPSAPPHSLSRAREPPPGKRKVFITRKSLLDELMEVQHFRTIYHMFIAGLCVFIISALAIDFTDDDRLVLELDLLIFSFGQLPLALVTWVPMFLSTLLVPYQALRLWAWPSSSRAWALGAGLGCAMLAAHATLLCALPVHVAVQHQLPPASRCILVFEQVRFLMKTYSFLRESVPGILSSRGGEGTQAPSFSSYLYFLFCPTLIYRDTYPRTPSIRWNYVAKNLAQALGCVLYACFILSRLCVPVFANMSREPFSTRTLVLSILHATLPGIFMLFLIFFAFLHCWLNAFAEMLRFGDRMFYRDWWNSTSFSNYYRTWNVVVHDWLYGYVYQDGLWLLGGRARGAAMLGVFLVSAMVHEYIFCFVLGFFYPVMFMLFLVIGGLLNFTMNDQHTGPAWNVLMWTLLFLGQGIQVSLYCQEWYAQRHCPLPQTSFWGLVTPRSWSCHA
Protocol: The ability of representative compounds of the present invention to inhibit ACAT was measured using an in vitro test more fully described in Field, F. J. and Salone, R. G., Biochemica et Biophysica 712: 557-570 (1982). The test assesses the ability of a test compound to inhibit the acylation of cholesterol by oleic acid by measuring the amount of radio-labeled cholesterol oleate formed from radiolabeled oleic acid in a tissue preparation containing rabbit intestinal microsomes.
The data appear in Table 1 where they are expressed as IC50 values; i.e. the concentration of test compound required to inhibit 50% […] of the enzyme.

Compound	% Change (mg/dl) [1] [%]	IC50 [2] [nM]
CC(C)c1cccc(C(C)C)c1NC(=O)CN(CC1(c2ccccc2)CCCC1)C(=S)Nc1ccccc1 [Example 10, N-[2,6-bis(1-Methylethyl)phenyl]-2-[[(phenylamino)thioxomethyl][(1-phenylcyclopentyl)methyl]amino]acetamide]	-30	100
Cc1ccc(S(=O)(=O)N[C@@H](Cc2ccccc2)C(=O)Nc2c(C(C)C)cccc2C(C)C)cc1 [Example 52, (S)-N-[2,6-bis(1-Methylethyl)phenyl]-α-[[(4-methylphenyl)sulfonyl]amino]benzenepropanamide]	–	960
CC(C)c1cccc(C(C)C)c1NC(=O)CNC(c1ccccc1)c1ccccc1 [Example 4, N-[2,6-bis(1-Methylethyl)phenyl]-2-[(diphenylmethyl)amino]acetamide]	-45	55
CC(C)c1cccc(C(C)C)c1NC(=O)[C@H](Cc1ccccc1)NC(=O)OC(C)(C)C [Example 41, (S)-α-N-(2,6-Diisopropylphenyl)benzenepropanamide]	–	350
Cc1ccc(S(=O)(=O)N(CC(=O)Nc2c(C(C)C)cccc2C(C)C)CC2(c3ccccc3)CCCC2)cc1 [Example 14, N-[2,6-bis(1-Methylethyl)phenyl]-2-[[(4-methylphenyl)sulfonyl][(1-phenylcyclopentyl)methyl]amino]acetamide]	-24	–
CC(C)c1cccc(C(C)C)c1NC(=O)[C@H](Cc1ccc(O)cc1)NC(=O)OC(C)(C)C [Example 21, (S)-1,1-Dimethylethyl[2-[[2,6-bis-(1-methylethyl)phenyl]amino]-1-[(4-hydroxyphenyl)-methyl]-2-oxoethyl]carbamate]	–	1050
CC(C)c1cccc(C(C)C)c1NC(=O)CN(CC1(c2ccccc2)CCCC1)C(=O)Nc1ccccc1 [Example 11, N-(2,6-bis(1-Methylethyl)phenyl]-2-[[(phenylamino)carbonyl][(1-phenylcyclopentyl)methyl]amino]-acetamide]	-3	–
